Laboratory results reported in patent US7491794B2, “Macrocyclic compounds as inhibitors of viral replication” (Intermune, Inc., priority 2003, dated 2009).

Columns and labels:
NS3-NS4A protease = target: T1, NS3-NS4A protease (Hepatitis C virus genotype 1a, UniProt P27958); experiment: NS3-NS4A protease assay (NS3 inhibition assay, RETS1 substrate), Section B; assay type: biochemical; settings: read-out: NS3-NS4A IC50
T1 construct: Recombinant E. coli or Baculovirus full-length NS3 was diluted to 3.33 μM with assay buffer; made in house; host or cells: E. coli or baculovirus (BV) system
Procedure, shortened: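 Kinetic fluorescence read (335 nm excitation, 495 nm emission, 30 min) of RETS1 cleavage by NS3/NS4A-2 complex, 2 nM E. coli or 3 nM baculovirus NS3, after 10 min room-temperature compound pre-incubation. Four-parameter-fit IC50s converted to Ki by Cheng–Prusoff, Ki=IC50/(1+[S]/Km).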

[1] = system: HCV sub-genomic replicon, GS4.3; experiment: Quantitation by ELISA of NPTII in the HCV sub-genomic replicon, GS4.3, Section B; assay type: cell-based; settings: Hepatitis C virus; GS4.3 cells, 72 h incubation; read-out: Replicon EC50
Procedure, shortened: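 NPTII marker protein in lysates was quantified by ELISA read at 450 nm after 72 h inhibitor exposure (3-fold series, final DMSO 1%, G418-free medium) of HuH-7 cells stably harbouring the subgenomic HCV replicon. Values relative to DMSO-treated controls; 4-parameter curves gave EC50.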

T1 sequence (P27958 1027-1657): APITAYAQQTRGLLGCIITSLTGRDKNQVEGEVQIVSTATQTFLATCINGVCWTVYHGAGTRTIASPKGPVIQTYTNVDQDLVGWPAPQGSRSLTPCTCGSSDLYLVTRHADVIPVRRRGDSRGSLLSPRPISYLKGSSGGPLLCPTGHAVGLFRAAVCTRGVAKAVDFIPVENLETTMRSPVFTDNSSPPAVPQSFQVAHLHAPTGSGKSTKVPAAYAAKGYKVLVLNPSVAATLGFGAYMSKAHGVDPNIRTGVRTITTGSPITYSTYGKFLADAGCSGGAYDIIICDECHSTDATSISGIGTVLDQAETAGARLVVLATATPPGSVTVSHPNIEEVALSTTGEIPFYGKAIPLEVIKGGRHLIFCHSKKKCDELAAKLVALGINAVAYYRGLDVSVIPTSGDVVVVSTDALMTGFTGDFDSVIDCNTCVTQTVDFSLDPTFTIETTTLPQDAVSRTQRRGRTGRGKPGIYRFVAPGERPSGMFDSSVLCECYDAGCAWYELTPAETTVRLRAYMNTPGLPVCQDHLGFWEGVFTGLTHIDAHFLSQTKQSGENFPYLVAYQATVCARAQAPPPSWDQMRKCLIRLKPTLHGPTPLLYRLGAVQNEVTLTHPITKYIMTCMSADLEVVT

Question: What does the source list for `O=C(NC1CCCC1)N[C@H]1CCCCC/C=C\[C@@H]2C[C@@]2(C(=O)NS(=O)(=O)C2CC2)NC(=O)[C@@H]2C[C@@H](OC(=O)N3Cc4cc(Cl)c(Cl)cc4C3)CN2C1=O` [AR00320575, (1S,4R,6S,14S,18R)-5,6-Dichloro-1,3-dihydro-isoindole-2-carboxylic acid 14-(3-cyclopentyl-ureido)-4-cyclopropanesulfonylaminocarbonyl-2,15-dioxo-3,16-diaza-tricyclo[14.3.0.0^4,6]nonadec-7-en-18-yl ester]?
Answer: IC50 (NS3-NS4A protease): < 100 nM; EC50 [1]: < 1000 nM

Question: Which results are given for `COc1ccc2[nH]c3c(c2c1)CCN(C(=O)O[C@@H]1C[C@H]2C(=O)N[C@]4(C(=O)O)C[C@H]4/C=C\CCCCC[C@H](NC(=O)OC(C)(C)C)C(=O)N2C1)C3` [AR00320577, (1S,4R,6S,14S,18R)-14-tert-Butoxycarbonylamino-18-(6-methoxy-1,3,4,9-tetrahydro-b-carboline-2-carbonyloxy)-2,15-dioxo-3,16-diaza-tricyclo[14.3.0.0^4,6]nonadec-7-ene-4-carboxylic acid]?
Answer: IC50 (NS3-NS4A protease): < 1000 nM; EC50 [1]: < 10000 nM

Question: With `O=C(N[C@H]1CCCCC/C=C\[C@@H]2C[C@@]2(C(=O)NS(=O)(=O)C2CC2)NC(=O)[C@@H]2C[C@@H](OC(=O)N3CCc4ccccc4C3)CN2C1=O)OCC(F)(F)F` [AR00320578, (1S,4R,6S,14S,18R)-3,4-Dihydro-1H-isoquinoline-2-carboxylic acid 4-cyclopropanesulfonylaminocarbonyl-2,15-dioxo-14-(2,2,2-trifluoro-ethoxycarbonylamino)-3,16-diaza-tricyclo[14.3.0.0^4,6]nonadec-7-en-18-yl ester] as the compound, how does the IC50 (NS3-NS4A protease) read?
Answer: < 100 nM

Question: What about the EC50 [1] of the same compound?
Answer: < 100 nM

Question: Which IC50 (NS3-NS4A protease) does the source give for `O=C(N[C@H]1CCCCC/C=C\[C@@H]2C[C@@]2(C(=O)NS(=O)(=O)C2CC2)NC(=O)[C@@H]2C[C@@H](OC(=O)N3CCc4ccccc4C3)CN2C1=O)OCC(F)F` [AR00320579, (1S,4R,6S,14S,18R)-3,4-Dihydro-1H-isoquinoline-2-carboxylic acid 4-cyclopropanesulfonylaminocarbonyl-14-(2,2-difluoro-ethoxycarbonylamino)-2,15-dioxo-3,16-diaza-tricyclo[14.3.0.0^4,6]nonadec-7-en-18-yl ester] here?
Answer: < 100 nM

Question: And the EC50 [1]?
Answer: < 100 nM

Question: Which results are given for `O=C(N[C@H]1CCCCC/C=C\[C@@H]2C[C@@]2(C(=O)NS(=O)(=O)C2CC2)NC(=O)[C@@H]2C[C@@H](OC(=O)N3CCc4ccccc4C3)CN2C1=O)OC(CF)CF` [AR00320580, (1S,4R,6S,14S,18R)-3,4-Dihydro-1H-isoquinoline-2-carboxylic acid 4-cyclopropanesulfonylaminocarbonyl-14-(2-fluoro-1-fluoromethyl-ethoxycarbonylamino)-2,15-dioxo-3,16-diaza-tricyclo[14.3.0.0^4,6]nonadec-7-en-18-yl ester]?
Answer: IC50 (NS3-NS4A protease): < 100 nM; EC50 [1]: < 100 nM

Question: What does the source list for `CC(OC(=O)N[C@H]1CCCCC/C=C\[C@@H]2C[C@@]2(C(=O)NS(=O)(=O)C2CC2)NC(=O)[C@@H]2C[C@@H](OC(=O)N3CCc4ccccc4C3)CN2C1=O)C(F)(F)F` (stereo partly drawn) [AR00320581, (1S,4R,6S,14S,18R)-3,4-Dihydro-1H-isoquinoline-2-carboxylic acid 4-cyclopropanesulfonylaminocarbonyl-2,15-dioxo-14-(2,2,2-trifluoro-1-methyl-ethoxycarbonylamino)-3,16-diaza-tricyclo[14.3.0.0^4,6]nonadec-7-en-18-yl ester]?
Answer: IC50 (NS3-NS4A protease): < 100 nM; EC50 [1]: < 100 nM

Question: For `CC(C)(OC(=O)N[C@H]1CCCCC/C=C\[C@@H]2C[C@@]2(C(=O)NS(=O)(=O)C2CC2)NC(=O)[C@@H]2C[C@@H](OC(=O)N3CCc4ccccc4C3)CN2C1=O)C(F)(F)F` [AR00320582, (1S,4R,6S,14S,18R)-3,4-Dihydro-1H-isoquinoline-2-carboxylic acid 4-cyclopropanesulfonylaminocarbonyl-2,15-dioxo-14-(2,2,2-trifluoro-1,1-dimethyl-ethoxycarbonylamino)-3,16-diaza-tricyclo[14.3.0.0^4,6]nonadec-7-en-18-yl ester], which IC50 (NS3-NS4A protease) is on record?
Answer: < 100 nM

Question: And the EC50 [1]?
Answer: < 100 nM

Question: Which IC50 (NS3-NS4A protease) does the source give for `C[C@H]1CN(C(=O)O[C@@H]2C[C@H]3C(=O)N[C@]4(C(=O)NS(=O)(=O)C5CC5)C[C@H]4/C=C\CCCCC[C@H](NC(=O)OC(C)(C)C)C(=O)N3C2)Cc2ccccc21` [AR00333462, (1S,4R,6S,14S,18R)-4R-Methyl-3,4-dihydro-1H-isoquinoline-2-carboxylic acid 14-tert-butoxycarbonylamino-4-cyclopropanesulfonylaminocarbonyl-2,15-dioxo-3,16-diaza-tricyclo[14.3.0.0^4,6]nonadec-7-en-18-yl ester] here?
Answer: < 100 nM

Question: And the EC50 [1]?
Answer: < 100 nM

Question: What does the source list for `C[C@@H]1CN(C(=O)O[C@@H]2C[C@H]3C(=O)N[C@]4(C(=O)NS(=O)(=O)C5CC5)C[C@H]4/C=C\CCCCC[C@H](NC(=O)OC(C)(C)C)C(=O)N3C2)Cc2ccccc21` [AR00333463, (1S,4R,6S,14S,18R)-4S-Methyl-3,4-dihydro-1H-isoquinoline-2-carboxylic acid 14-tert-butoxycarbonylamino-4-cyclopropanesulfonylaminocarbonyl-2,15-dioxo-3,16-diaza-tricyclo[14.3.0.0^4,6]nonadec-7-en-18-yl ester]?
Answer: IC50 (NS3-NS4A protease): < 100 nM; EC50 [1]: < 100 nM

Question: How did the IC50 (NS3-NS4A protease) turn out when `CC(C)S(=O)(=O)NC(=O)[C@@]12C[C@H]1/C=C\CCCCC[C@H](NC(=O)OC(C)(C)C)C(=O)N1C[C@H](OC(=O)N3Cc4ccccc4C3)C[C@H]1C(=O)N2` [AR00333801, (1S,4R,6S,14S,18R)-1,3-Dihydro-isoindole-2-carboxylic acid 14-tert-butoxycarbonylamino-2,15-dioxo-4-(propane-2-sulfonylaminocarbonyl)-3,16-diaza-tricyclo[14.3.0.0^4,6]nonadec-7-en-18-yl ester] was run?
Answer: < 100 nM

Question: What about the EC50 [1] of the same compound?
Answer: < 100 nM

Question: `CC(C)(C)OC(=O)N[C@H]1CCCCC/C=C\[C@@H]2C[C@@]2(C(=O)NS(=O)(=O)c2ccccc2)NC(=O)[C@@H]2C[C@@H](OC(=O)N3Cc4ccccc4C3)CN2C1=O` [AR00333802, (1S,4R,6S,14S,18R)-1,3-Dihydro-isoindole-2-carboxylic acid 4-benzenesulfonylaminocarbonyl-14-tert-butoxycarbonylamino-2,15-dioxo-3,16-diaza-tricyclo[14.3.0.0^4,6]nonadec-7-en-18-yl ester] was tested. Which IC50 (NS3-NS4A protease) did it give?
Answer: < 100 nM

Question: And the EC50 [1]?
Answer: < 100 nM

Question: For `CC(C)(C)OC(=O)N[C@H]1CCCCC/C=C\[C@@H]2C[C@@]2(C(=O)NS(C)(=O)=O)NC(=O)[C@@H]2C[C@@H](OC(=O)N3Cc4ccccc4C3)CN2C1=O` [AR00333803, (1S,4R,6S,14S,18R)-1,3-Dihydro-isoindole-2-carboxylic acid 14-tert-butoxycarbonylamino-4-methanesulfonylaminocarbonyl-2,15-dioxo-3,16-diaza-tricyclo[14.3.0.0^4,6]nonadec-7-en-18-yl ester], which IC50 (NS3-NS4A protease) is on record?
Answer: < 100 nM

Question: And the EC50 [1]?
Answer: < 1000 nM

Question: How did the IC50 (NS3-NS4A protease) turn out when `O=C(N[C@H]1CCCCCC=C[C@@H]2C[C@@]2(C(=O)NS(=O)(=O)C2CC2)NC(=O)[C@@H]2C[C@@H](OC(=O)N3Cc4ccccc4C3)CN2C1=O)OC1CCCC1` [AR00333831, (1S,4R,6S,14S,18R)-1,3-Dihydro-isoindole-2-carboxylic acid 14-cyclopentyloxycarbonylamino-4-cyclopropanesulfonylaminocarbonyl-2,15-dioxo-3,16-diaza-tricyclo[14.3.0.0^4,6]nonadec-7-en-18-yl ester] was run?
Answer: < 100 nM

Question: And the EC50 [1]?
Answer: < 100 nM

Question: What does the source list for `COCC1c2ccc(OC)cc2CCN1C(=O)O[C@@H]1C[C@H]2C(=O)N[C@]3(C(=O)O)C[C@H]3/C=C\CCCCC[C@H](NC(=O)OC(C)(C)C)C(=O)N2C1` (stereo partly drawn) [AR00333842, (1S,4R,6S,14S,18R)-14-tert-Butoxycarbonylamino-18-(6-methoxy-1-methoxymethyl-3,4-dihydro-1H-isoquinoline-2-carbonyloxy)-2,15-dioxo-3,16-diaza-tricyclo[14.3.0.0^4,6]nonadec-7-ene-4-carboxylic acid]?
Answer: IC50 (NS3-NS4A protease): < 1000 nM; EC50 [1]: < 10000 nM

Question: Which results are given for `CC(C)(C)OC(=O)N[C@H]1CCCCC/C=C\[C@@H]2C[C@@]2(C(=O)NS(=O)(=O)c2ccc(Cl)s2)NC(=O)[C@@H]2C[C@@H](OC(=O)N3Cc4ccccc4C3)CN2C1=O` [AR00334188, (1S,4R,6S,14S,18R)-1,3-Dihydro-isoindole-2-carboxylic acid 14-tert-butoxycarbonylamino-4-(5-chloro-thiophene-2-sulfonylaminocarbonyl)-2,15-dioxo-3,16-diaza-tricyclo[14.3.0.0^4,6]nonadec-7-en-18-yl ester]?
Answer: IC50 (NS3-NS4A protease): < 100 nM; EC50 [1]: < 1000 nM

Question: How did the IC50 (NS3-NS4A protease) turn out when `CC(C)(C)OC(=O)N[C@H]1CCCCC/C=C\[C@@H]2C[C@@]2(C(=O)NS(=O)(=O)C2CC2)NC(=O)[C@@H]2C[C@@H](OC(=O)N3Cc4cccc(F)c4C3)CN2C1=O` [AR00334191, (1S,4R,6S,14S,18R)-4-Fluoro-1,3-dihydro-isoindole-2-carboxylic acid 14-tert-butoxycarbonylamino-4-cyclopropanesulfonylaminocarbonyl-2,15-dioxo-3,16-diaza-tricyclo[14.3.0.0^4,6]nonadec-7-en-18-yl ester] was run?
Answer: < 100 nM

Question: And the EC50 [1]?
Answer: < 100 nM

Question: For `O=C(N[C@H]1CCCCC/C=C\[C@@H]2C[C@@]2(C(=O)NS(=O)(=O)C2CC2)NC(=O)[C@@H]2C[C@@H](OC(=O)N3Cc4ccc(Cl)cc4C3)CN2C1=O)OC1CCCC1` [AR00334218, (1S,4R,6S,14S,18R)-5-Chloro-1,3-dihydro-isoindole-2-carboxylic acid 14-cyclopentyloxycarbonylamino-4-cyclopropanesulfonylaminocarbonyl-2,15-dioxo-3,16-diaza-tricyclo[14.3.0.0^4,6]nonadec-7-en-18-yl ester], which IC50 (NS3-NS4A protease) is on record?
Answer: < 100 nM

Question: What about the EC50 [1] of the same compound?
Answer: < 100 nM
